We go through nine compounds from paper PMC6753678, “Fueling Open Innovation for Malaria Transmission-Blocking Drugs: Hundreds of Molecules Targeting Early Parasite Mosquito Stages” (Frontiers in Microbiology, 2019).

One may read the IC50 as the concentration at which inhibition is half-maximal.

Where two headings read alike, the source gives them in different places.

The subject of series [1] is P. falciparum late stage (stages IV-V) gametocytes. Further details: method as in Almela et al 2016. The note with it: ref Almela et al 2016, read-out: Pf GCT ATP IC50, cited from earlier work.
Series [2] has as its system HepG2 cells. Particulars: cited from earlier work; for HepG2 cytoxicity (Pf FGAA screen): ref Miguel-Blanco et al 2017.
Series [3] has as its system 3D7-strain P. falciparum asexual parasites. Kind of series: P. falciparum asexual growth inhibition assay (Pf GIA). In kind it is cell-based, Plasmodium falciparum. The note with it: dose response confirmation; read-out: Pf asexual growth inhibition assays IC50. In outline:
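Read-out was lactate dehydrogenase activity measured by absorbance at 650 nm after freezing and thawing, against 50 μM chloroquine and DMSO controls. Before that, asexual 3D7 cultures (0.25% parasitemia, 2% hematocrit) had 72 h dose-response compound exposure at 37°C in 5% CO2/5% O2/90% N2; three independent replicates averaged.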

For series [4], the system named is HepG2 cells. Kind of series: HepG2 cytotoxicity assay. The note with it: for Unified cytotox: HepG2 values of the three screens unified; for IC50: read-out: HepG2 cytotoxicity assay IC50, dose response confirmation. Summed up:
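Cells are plated at 2,500 per well on compound-treated plates in MEM containing 10% fetal bovine serum and 1% NEAA, then incubated 48 h at 37°C.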

For series [5], the system named is P. berghei ookinete development. The note with it: for Is compound selective in assay? Pb ODA active?: 1: YES, 0: NO; for % inhibition, Replicate A / % inhibition, Replicate B: primary screen at 1 μM.
For series [6], the system named is P. falciparum female gametocytes. Details: method as in Miguel-Blanco et al 2017. Particulars: ref Miguel-Blanco et al 2017; read-out: Pf FGAA IC50; cited from earlier work.
Series [7] has the same test system. Kind of series: P. falciparum female gametogenesis assay (Pf FGAA). The note with it: 1: YES; 0: NO.
Setting [8] is: P. falciparum late stage gametocyte ATP assay.
Setting [9] is: read-out: Pb Ookinete development assay IC50, dose response confirmation.
Where [10] appears, read: read-out: Pb ODA IC50, this manuscript.

`c1ccc(CSC2=NNC(c3ccccn3)S2)cc1` (centres unmarked) [TCMDC-123769]: in series [1] (TCAMS library screen), the IC50 was 7980 nM. The “HepG2 cytoxicity (Pf GCT ATP screen)” value with HepG2 cells [2] (HepG2 value reported with Pf GCT ATP screen, ref Almela et al 2016) was above 25 µM.

Turning to `O=C(Nc1ccc2c(c1)CCCN2S(=O)(=O)c1cccs1)c1cc([N+](=O)[O-])ccc1Cl` [TCMDC-125153], in series [1] (setting [8]), the IC50 was 2660 nM. Further, in the series with HepG2 cells [2] (HepG2 data listed with Pf GCT ATP screen, ref Almela et al 2016), the “HepG2 cytoxicity” value was above 25 µM.

As for `Br.Cc1ccnc(Nc2nc(-c3ccccn3)cs2)c1` [TCMDC-125769], the concentration for half-maximal inhibition (IC50) in series [1] (setting [8]) was 43.3 nM.

As for `COc1ccc(-c2cc(-c3ccc(S(C)(=O)=O)cc3)cnc2N)cn1` [TCMDC-133351], in series [1] (P. falciparum late stage gametocyte ATP assay, TCAMS screen), the IC50 was 1180 nM.

Take `CC(C)(CNC(=O)[C@H]1CCCCN1)c1nc(-c2ccc(Cl)c(O)c2)c(-c2ccncc2)[nH]1.Cl` [TCMDC-141070]: the IC50 in series [3] came to 818 nM. Moreover, in the series on HepG2 cells [4], the “HepG2 cytoxicity (Pb ODA, this manuscript)” value was 61.66 µM; the Unified cytotox is on record as 45.31 µM; the IC50 stood at 61.7 µM. Besides, in series [5], the “Is compound selective in assay? Pb ODA active?” value is 1 (1: YES); the “% inhibition, Replicate A” value worked out at 24.32%; the “% inhibition, Replicate B” value is reported as 51.52%. The IC50 in series [5] (setting [9]) is 2570 nM. Moreover, in series [6], the IC50 is 530 nM. Also, in the series on HepG2 cells [2], the “HepG2 cytoxicity (Pf FGAA screen)” value is 28.96 µM. The “Is compound selective in assay? Pf FGAA active?” value in series [7] is reported as 1 (1: YES).

On to `Cl.NCC1(c2nc(-c3ccc(Cl)c(O)c3)c(-c3ccncc3)[nH]2)CCCCC1` [TCMDC-141154], for which, in series [3], the IC50 turned out to be 1480 nM. In the series on HepG2 cells [4], the “HepG2 cytoxicity (Pb ODA, this manuscript)” value worked out at 46.77 µM; the Unified cytotox amounted to 29.34 µM; the IC50 was determined as 46.8 µM. In addition, in series [5], the “Is compound selective in assay? Pb ODA active?” value is listed as 1 (1: YES); the “% inhibition, Replicate A” value came to 57.75%; the “% inhibition, Replicate B” value amounted to 53.53%. In addition, the IC50 in series [5] (setting [10]) came out at 1010 nM. In addition, the 50% inhibitory concentration (IC50) in series [5] (setting [9]) is 1000 nM. The IC50 in series [6] was 210 nM. Moreover, the “HepG2 cytoxicity (Pf FGAA screen)” value in the series with HepG2 cells [2] is given as 11.90 µM. Also, the “Is compound selective in assay? Pf FGAA active?” value in series [7] is recorded as 1 (1: YES).

For the compound `CC(C)(CN)c1cc(-c2ccc(Cl)c(O)c2)c(-c2ccncc2)o1.Cl` [TCMDC-141334], the IC50 in series [3] was determined as 1620 nM. In the series on HepG2 cells [4], the “HepG2 cytoxicity (Pb ODA, this manuscript)” value was found to be 20.65 µM; the Unified cytotox was 15.32 µM; the half-inhibitory concentration (IC50) was 20.7 µM. Further, in series [5], the “Is compound selective in assay? Pb ODA active?” value is recorded as 1 (1: YES); the “% inhibition, Replicate A” value amounted to 59.21%; the “% inhibition, Replicate B” value was found to be 49.94%. In addition, the IC50 in series [5] (setting [10]) was 1390 nM. Moreover, the 50% inhibitory concentration (IC50) in series [5] (setting [9]) came out at 1390 nM. Also, the concentration for half-maximal inhibition (IC50) in series [6] is 420 nM. Also, in the series on HepG2 cells [2], the “HepG2 cytoxicity (Pf FGAA screen)” value is reported as 9.98 µM. In series [7], the “Is compound selective in assay? Pf FGAA active?” value is given as 1 (1: YES).

With `O=C(Nc1ccc(Cl)cc1)c1cc(Cl)cc2nc(C(F)(F)F)[nH]c12` [TCMDC-141586], the IC50 in series [3] turned out to be 1100 nM. Besides, in the series on HepG2 cells [4], the “HepG2 cytoxicity (Pb ODA, this manuscript)” value is on record as 2.04 µM; the Unified cytotox worked out at 2.43 µM; the IC50 came out at 2.04 µM. Further, in series [5], the “Is compound selective in assay? Pb ODA active?” value is listed as 0 (0: NO); the “% inhibition, Replicate A” value was 65.74%; the “% inhibition, Replicate B” value came out at 42.68%. Besides, the 50% inhibitory concentration (IC50) in series [5] (setting [10]) came to 4370 nM. Besides, in series [5] (setting [9]), the IC50 is 4360 nM. Further, the concentration for half-maximal inhibition (IC50) in series [6] is 1700 nM. Further, the “HepG2 cytoxicity (Pf FGAA screen)” value in the series with HepG2 cells [2] is listed as 2.82 µM. In series [7], the “Is compound selective in assay? Pf FGAA active?” value is on record as 0 (0: NO).

As for `Cc1cc(F)ccc1-c1nc(NCCCNCCc2ccccc2)nc2c1ccc(=O)n2-c1c(F)cccc1F.O=C(O)C(F)(F)F` [TCMDC-141804], the IC50 in series [3] came to 21 nM. Besides, in the series on HepG2 cells [4], the “HepG2 cytoxicity (Pb ODA, this manuscript)” value was 11.48 µM; the Unified cytotox stood at 12.04 µM; the IC50 came to 11.5 µM. Moreover, in series [5], the “Is compound selective in assay? Pb ODA active?” value was 1 (1: YES); the “% inhibition, Replicate A” value turned out to be 63.85%; the “% inhibition, Replicate B” value is 85.47%. The half-maximal inhibitory concentration (IC50) in series [5] (setting [10]) was 720 nM. In series [5] (setting [9]), the half-maximal inhibitory concentration (IC50) is 725 nM. For the same compound, the concentration for half-maximal inhibition (IC50) in series [6] was 3610 nM. For the same compound, the “HepG2 cytoxicity (Pf FGAA screen)” value in the series with HepG2 cells [2] was 12.59 µM. In addition, the “Is compound selective in assay? Pf FGAA active?” value in series [7] is recorded as 0 (0: NO).
